Assays:
[1] = biological target: T1, AMY3 receptor (Homo sapiens, UniProt O60896+P30988); test: Inhibition of hAmylin-evoked cAMP in AMY3-expressing HEK293 cells; assay type: cell-based; conditions: AMY3-HEK cells
T1 construct: expressed in transfected cells; AMY3-293 / AMY3-HEK)
T1 sequence (P30988 25-474): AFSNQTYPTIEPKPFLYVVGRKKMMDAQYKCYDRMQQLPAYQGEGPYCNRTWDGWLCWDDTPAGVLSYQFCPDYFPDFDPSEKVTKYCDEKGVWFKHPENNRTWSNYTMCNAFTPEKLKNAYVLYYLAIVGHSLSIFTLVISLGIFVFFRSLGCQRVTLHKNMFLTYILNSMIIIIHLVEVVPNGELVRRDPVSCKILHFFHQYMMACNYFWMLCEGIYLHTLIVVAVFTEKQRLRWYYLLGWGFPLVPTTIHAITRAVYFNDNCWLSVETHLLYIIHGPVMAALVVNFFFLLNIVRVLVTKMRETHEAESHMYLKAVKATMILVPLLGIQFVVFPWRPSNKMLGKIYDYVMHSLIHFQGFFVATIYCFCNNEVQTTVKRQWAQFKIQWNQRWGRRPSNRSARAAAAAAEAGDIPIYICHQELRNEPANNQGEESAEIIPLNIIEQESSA
T1 sequence (O60896 24-148 partner): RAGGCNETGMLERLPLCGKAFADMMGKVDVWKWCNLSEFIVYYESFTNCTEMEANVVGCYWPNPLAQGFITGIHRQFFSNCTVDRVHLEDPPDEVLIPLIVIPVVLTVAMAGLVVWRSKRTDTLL
Procedure: a) To investigate peptides amylin receptor affinity, GFP-positive HEK293 cells that stably expressed AMY3 receptor (AMY3-293) as previously reported (Fu et al., 2012) were used. For control, GFP-positive HEK293 wild type cells were used. HEK293 cells were cultured in DMEM (Invitrogen) with 10% FBS (Invitrogen) and grown at 37° C., 5% C02. For cAMP measurements, AMY3-293 cells were plated on 24-well plates overnight. Cells were stimulated for 30 minutes with hAmylin over a concentration range (1 pM-10 μM). Cellular cAMP levels were measured using a parameter cyclic AMP assay kit (R&D Systems) according to the manufacturer's instructions. For in-cell Western blot cAMP quantification, mouse monoclonal anti-cAMP (R&D Systems) was used as a primary antibody, and IRDye 800 goat anti mouse antibody (LI-COR) was used as a secondary antibody. Plates were imaged using an Odyssey Infrared Imaging System (LI-COR), and the integrated intensity was normalized to the total cell number on the same well. Data was plotted, and non-linear regression was fitted with four parameters using Prism software (GraphPad Software, La Jolla, Calif.).
e) For cAMP measurements, AMY3-293 cells were plated on 24-well plates overnight. […] Cellular cAMP levels were measured using a parameter cyclic AMP assay kit (R&D Systems) according to the manufacturer's instructions. […]

[2] = tested on: TgCRND8 AD mouse model; test: T-maze alternation, chronic icv infusion of AC253; assay type: in vivo; conditions: TgCRND8 mice receiving icv AC253 vs other groups
Procedure: Age-matched, wild-type littermate (C57BL/6 background) male or female mice were used. […] Heterozygous CTR (het CTR) mice (C57BL/6J background) with a 50% deletion of CTR were obtained from Drs. R. A. Davey and J. D. Zajac (Department of Medicine, Austin Health, University of Melbourne, Heidelberg, Victoria, Australia). Mice were housed individually under standard laboratory conditions (12/12-h light/dark cycle, lights on at 0600 h) with a room temperature of 21° C. Water and food were available ad libitum unless otherwise indicated. All tests were performed during the light phase between 0900 and 1600 h in accordance with institutional guidelines. The mice were 3 months old at the onset of testing.
A microcannula was stereotaxically inserted into the right cerebral ventricle (0.12 right lateral and 0.06 posterior to bregma, 3 mm deep) of isofluorane-anesthetized mice, and connected to an osmotic pump (Alzet; model 2004) implanted subcutaneously on the back of the mouse. The pump infused a solution of either aCSF or AC253 in aCSF into the ventricle at a rate of […] to yield an estimated concentration of 1 μM AC253 in the mouse CSF at equilibrium based upon the known CSF dynamics in the mouse brain (Di Pardo et al., 2012). […] Animals were monitored on a daily basis for signs of treatment-related toxicity, such as poor grooming, lethargy, loss of bodyweight, and abnormal behavior. […]

[3] = Lipophilicity, shake flask 1-octanol/water partition; assay type: physicochemical
Procedure: Peptides hydrophobicity was determined using the shake flask method and 1-octanol/water partition coefficient (log Po/w) was determined. […] Peptide concentration (area) in both phases (1-octanol and water) were analyzed by RP-HPLC. The final log Po/w value was calculated by dividing the concentration (C) of the peptide in the two phases as presented by the area under the peak (partition coefficients=C1-octanol/Cwater).

CC(C)C[C@H](NC(=O)[C@H](CCCNC(=N)N)NC(=O)CNC(=O)[C@@H](N)CC(C)C)C(=O)N[C@@H](CO)C(=O)N[C@@H](CCC(N)=O)C(=O)N[C@@H](CCC(=O)O)C(=O)N[C@@H](CC(C)C)C(=O)N[C@@H](Cc1c[nH]cn1)C(=O)N[C@@H](CCCNC(=N)N)C(=O)N[C@@H](CC(C)C)C(=O)N[C@@H](CCC(N)=O)C(=O)N[C@H](C(=O)N[C@@H](Cc1ccc(O)cc1)C(=O)N1CCC[C@H]1C(=O)N[C@@H](CCCNC(=N)N)C(=O)N[C@H](C(=O)N[C@@H](CC(N)=O)C(=O)N[C@H](C(=O)NCC(=O)N[C@@H](CO)C(=O)N[C@@H](CC(N)=O)C(=O)N[C@H](C(=O)N[C@@H](Cc1ccc(O)cc1)C(N)=O)[C@@H](C)O)[C@@H](C)O)[C@@H](C)O)[C@@H](C)O [AC253]
block of hAmylin evoked cAMP increase [1]: blocked the hAmylin evoked cAMP increase in a dose-dependent manner | T-maze, identification of the food arm [2]: correctly identified the food arm of the maze | Partition coefficient [3]: 1.05 | logP [3]: -1.2
